Measured values: US20240041042A1, “1-(PYRIDYL)-5-AZINYLPYRAZOLE DERIVATIVES, AND THEIR USE FOR CONTROL OF UNDESIRED PLANT GROWTH” (Bayer Aktiengesellschaft, priority 2020, published 2024)
Like-named read-outs stand apart in the source and are kept apart here.

Legend:
Assay type in all cases: in vivo
Setaria viridis (SETVI) [1] = test: Pre-emergence herbicidal action against SETVI; conditions: dosage 320 g/ha
Summary of the method: (§1)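 Dosages of 320 g/ha or less; pre-emergence; WP or EC in aqueous spray, 0.5% additive, 600 l/ha; greenhouse; visual % effect after ~3 wk relative to control pots.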

Viola tricolor (VIOTR) [2] = test: Pre-emergence herbicidal action against VIOTR
Summary of the method: as §1

Zea mays (ZEAMX) [3] = conditions: crop plant compatibility, effect vs untreated controls
Summary of the method: (§2)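 Foliar application at the one-leaf stage: WP/EC formulation, 0.5% additive, 600 l/ha water. Greenhouse-grown in sandy loam. Endpoint is visual % injury relative to untreated controls at about 3 weeks.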

[4] = test system: Abutilon theophrasti (ABUTH); test: Post-emergence herbicidal action against ABUTH; conditions: 320 g/ha, visual rating about 3 weeks after treatment vs untreated controls (100% = plants have died, 0% = like control plants)
Summary of the method: (§3)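 Greenhouse plants sprayed at the one-leaf stage, 2–3 weeks after sowing, with WP or EC formulations plus 0.5% additive at 600 l/ha water. Activity rated visually after about 3 weeks versus untreated controls (100% = dead, 0% = like control), at 320 g/ha or lower.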

[5] = test system: Amaranthus retroflexus (AMARE); test: Pre-emergence herbicidal action against AMARE; conditions: 320 g/ha, visual scoring after about 3 weeks vs untreated controls
Summary of the method: as §1

Lolium rigidum (LOLRI) = test: Post-emergence herbicidal action against LOLRI; conditions: dosage 320 g/ha
Summary of the method: as §3

Zea mays (ZEAMX) [6] = conditions: pre-emergence, crop plant compatibility, in comparison to untreated controls
Summary of the method: (§4)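 Crop injury rated visually in percent against untreated plants roughly 3 weeks after treatment (0% no effect, 100% plants dead). Compounds, as WP or EC with 0.5% additive in 600 l/ha water, were applied to the covering soil right after sowing; greenhouse growth. Suffixes a, b, c denote different dosages.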

[7] = test system: Triticum aestivum (TRZAS); conditions: pre-emergence, crop plant compatibility, in comparison to untreated controls
Summary of the method: as §4

Oryza sativa (ORYSA) [8] = conditions: pre-emergence, crop plant compatibility, in comparison to untreated controls
Summary of the method: as §4

Brassica napus (BRSNW) = conditions: crop plant compatibility, in comparison to untreated controls
Summary of the method: as §4

[9] = test system: Alopecurus myosuroides (ALOMY); test: Pre-emergence herbicidal action against ALOMY; conditions: 320 g/ha; scored visually after about 3 weeks; 100% = plants have died
Summary of the method: as §1

[10] = test system: Amaranthus retroflexus (AMARE); test: Post-emergence herbicidal action against AMARE
Summary of the method: as §3

Setaria viridis (SETVI) [11] = test: Post-emergence herbicidal action against SETVI; conditions: dosage 320 g/ha
Summary of the method: as §3

[12] = test system: Polygonum convolvulus (POLCO); test: Post-emergence herbicidal action against POLCO
Summary of the method: as §3

[13] = test system: Polygonum convolvulus (POLCO); test: Pre-emergence herbicidal action against POLCO; conditions: dosage 320 g/ha
Summary of the method: as §1

Avena fatua (AVEFA) [14] = test: Pre-emergence herbicidal action against AVEFA; conditions: 320 g/ha, visual scoring after about 3 weeks vs untreated controls
Summary of the method: as §1

[15] = test system: Alopecurus myosuroides (ALOMY); test: Post-emergence herbicidal action against ALOMY; conditions: 320 g/ha, visual rating about 3 weeks after treatment vs untreated controls (100% = plants have died, 0% = like control plants)
Summary of the method: as §3

[16] = test system: Verconica persica (VERPE); test: Post-emergence herbicidal action against VERPE; conditions: 320 g/ha, VERPE
Summary of the method: as §3

Viola tricolor (VIOTR) [17] = test: Post-emergence herbicidal action against VIOTR; conditions: 320 g/ha
Summary of the method: as §3

Avena fatua (AVEFA) [18] = test: Post-emergence herbicidal action against AVEFA; conditions: visual rating about 3 weeks after treatment
Summary of the method: as §3

[19] = test system: Echinochloa crus-galli (ECHCG); test: Post-emergence herbicidal action against ECHCG
Summary of the method: as §3

[20] = test system: Triticum aestivum (TRZAS); conditions: crop plant compatibility, effect vs untreated controls
Summary of the method: as §2

Oryza sativa (ORYSA) [21] = conditions: crop plant compatibility, effect in comparison to untreated controls
Summary of the method: as §2

[22] = 320 g/ha, visual rating about 3 weeks after treatment

| Post-emergence action against ZEAMX in % (Zea mays (ZEAMX) [3]; 80 g/ha) [%] | Pre-emergence action against ZEAMX in % (Zea mays (ZEAMX) [6]; 80 g/ha) [%] | Pre-emergence action against TRZAS in % ([7]; 80 g/ha) [%] | Pre-emergence action against ORYSA in % (Oryza sativa (ORYSA) [8]; 80 g/ha) [%] | Pre-emergence action against BRSNW in % (Brassica napus (BRSNW); 80 g/ha) [%] | Post-emergence action against ZEAMX in % (Zea mays (ZEAMX) [3]; 320 g/ha) [%] | Post-emergence action against TRZAS in % ([20]; 80 g/ha) [%] | Post-emergence action against ORYSA in % (Oryza sativa (ORYSA) [21]; 80 g/ha) [%] | Post-emergence action against ORYSA in % (Oryza sativa (ORYSA) [21]; 320 g/ha) [%] | Pre-emergence action against ZEAMX in % (Zea mays (ZEAMX) [6]; 320 g/ha) [%] | Pre-emergence action against ORYSA in % (Oryza sativa (ORYSA) [8]; 320 g/ha) [%] | SMILES | Post-emergence action against AMARE in % [10, 22] [%] | Post-emergence action against VERPE in % [16] [%] | Post-emergence action against VIOTR in % (Viola tricolor (VIOTR) [17]) [%] | Post-emergence action against AVEFA in % (Avena fatua (AVEFA) [18]; 320 g/ha) [%] | Post-emergence action against ECHCG in % ([19]; dosage 320 g/ha) [%] | other results |
| --- | --- | --- | --- | --- | --- | --- | --- | --- | --- | --- | --- | --- | --- | --- | --- | --- | --- |
| 0 | 0 | 0 | 0 | 20 | – | – | – | – | – | – | O=C(O)COc1nn(-c2ncccc2Cl)c(-c2ccc(F)nc2)c1Br [Example I-26] | 80 | 80 | 80 | 100 | 80 | Pre-emergence action against SETVI in % (Setaria viridis (SETVI) [1]): 100%; Pre-emergence action against VIOTR in % (Viola tricolor (VIOTR) [2]; 320 g/ha, Viola tricolor): 100%; Pre-emergence action against VIOTR in % (Viola tricolor (VIOTR) [2]; dosage 80 g/ha): 100%; Post-emergence action against ABUTH in % [4]: 90%; Pre-emergence action against AMARE in % [5]: 100%; Post-emergence action against LOLRI in % (Lolium rigidum (LOLRI)): 80%; Pre-emergence action against ALOMY [9]: 100%; Post-emergence action against AMARE in % ([10]; 80 g/ha, visual rating about 3 weeks after treatment vs untreated controls (100% = plants have died, 0% = like control plants)): 80%; Post-emergence action against SETVI in % (Setaria viridis (SETVI) [11]): 90%; Post-emergence action against POLCO in % ([12]; dosage 80 g/ha): 80%; Post-emergence action against POLCO in % ([12]; dosage 320 g/ha): 80%; Pre-emergence action against POLCO in % [13]: 90%; Pre-emergence action against AVEFA in % (Avena fatua (AVEFA) [14]): 90%; Post-emergence action against ALOMY in % [15]: 90%; Post-emergence action against AVEFA in % (Avena fatua (AVEFA) [18]; 80 g/ha): 100%; Post-emergence action against ECHCG in % ([19]; dosage 80 g/ha): 80% |
| 0 | 10 | 0 | 0 | 0 | 0 | 0 | 0 | 0 | 20 | 0 | CCOC(=O)COc1nn(-c2ccnc(F)c2)c(-c2ccc(F)nc2)c1Br [III-01] | 80 | 80 | 80 | 80 | 80 | – |
| 0 | 10 | 0 | 0 | 0 | 10 | 0 | 0 | 10 | 10 | 0 | O=C(O)C1CCN(C(=O)COc2nn(-c3ccccn3)c(-c3cncc(F)c3)c2Br)C1 (racemic) [Example I-63] | – | – | – | – | – | Post-emergence action against TRZAS in % ([20]; 320 g/ha): 0%; Pre-emergence action against TRZAS in % ([7]; 320 g/ha): 0%; Pre-emergence action against BRSNW in % (Brassica napus (BRSNW); 320 g/ha): 20% |
